The subject of experiment [1] is PAF-induced bronchial asthma. In words: Asthma-protective action in guinea pigs: PAF-induced bronchial asthma (inhalation, dual-chamber body plethysmograph). It is filed as in vivo, guinea pig. To be noted: for effects on PAF-induced and allergic reactions compared with androsin (in words): PAF-induced and allergic (ovalbumin) reactions. As for the experimental part:
(§1) b) Asthma-protective action of the acetophenone compound in guinea pigs.
(§2) Male white "Pirbright" guinea pigs were sensitized to ovalbumin by means of the well-known methods. Inhalation experiments were conducted 4 to 6 weeks later.
(§3) Spontaneously breathing animals were placed in a dual-chamber body plethysmograph in which the two chambers were separated around the head of the animals by a rubber collar filled with water. Changes in volume in the two chambers were measured by means of pressure transfer systems. The degree of bronchial obstruction was determined by means of the parameter, "compressed air". This technique is ten times more sensitive than other invasive methods (Dorsch et al., Pflugers Arch., 1981, 391: 236 to 241).
(§4) Groups of 10 to 14 animals were divided into two sub-groups and either treated with the test substance or with a solution. Three or four days later the experiments were repeated with those animals which had previously been given the control being given the test substance and vice-versa (each animal was once given either the test substance or the solvent).
Ovalbumin, histamine and acetylcholine were dissolved in saline solution; PAF was first dissolved in ethanol and then in saline solution containing 0.25% of bovine serum albumin to a final concentration of 1 μg PAF per ml. Ovalbumin, PAF, histamine and acetylcholine were administered in the form of an aerosol produced by ultrasound.
The effect of the test substance on the PAF-induced hyperreactivity was studied by means of successive inhalation of histamine, PAF and histamine. One group of animals was divided into two sub-groups with both sub-groups inhaling histamine in a dose leading to moderate bronchial obstruction. One hour later, one group was given the substance to be tested and the other group was given the solvent alone. Both groups were induced later by the successive inhalation of PAF and histamine. First 1 μg of PAF and 60 minutes later the same dose of histamine as before was given. The second contact with histamine in control animals usually leads to asthmatic reactions which are three times as great as after the first contact, […]

Experiment [2] deals with human peripheral leukocytes. Put plainly: Inhibition of histamine release from human peripheral leukocytes. The conditions noted are these: for inhibition at 0.1 µg/mL / inhibition at 1 µg/mL / inhibition at 10 µg/mL / inhibition at 100 µg/mL: Homo sapiens, Leukocyte; for inhibition at 0.1 µg/mL: 0.0001 mg/ml; for inhibition at 1 µg/mL: 0.001 mg/ml; for inhibition at 10 µg/mL: 0.01 mg/ml; for inhibition at 100 µg/mL: 0.1 mg/ml. The class given is cell-based. On the procedure: Venous blood was withdrawn from atopic donors and the peripheral leukocytes were obtained by means of dextran sedimentation. The purified cells were preincubated with three or four different concentrations of the substance to be tested and with the solvent alone. After 10 minutes, rabbit antihuman IgE antibodies, plasma containing anaphylatoxin (C5a) according to Vallota and Muller-Eberhard, calcium ionophore or saline solution were added to the cells. 30 minutes later, the reaction was stopped and the histamine concentration was measured in the […] by means of spectrofluorometry.
The results are shown in table 1 with the inhibition of the histamine release shown in percent of the maximal release by perchloric acid, corrected by the spontaneous release without stimulation.

In experiment [3] the test system is allergic bronchial asthma (ovalbumin inhalation). In words: Asthma-protective action in guinea pigs: allergic (ovalbumin-induced) bronchial asthma (inhalation, dual-chamber body plethysmograph). It is filed as in vivo, guinea pig. On the procedure: as §1, §2, §3, §4
Ovalbumin, histamine and acetylcholine were dissolved in saline solution; PAF was first dissolved in ethanol and then in saline solution containing 0.25% of bovine serum albumin to a final concentration of 1 μg PAF per ml. […]

Setting [4] is: A 12387 (calcium ionophore) stimulus.
The mark [5] stands for this setting: oral dose of 10 mg/kg body weight.

For the compound `COc1ccc(C(=O)CO)c(OC)c1` [2,4-dimethoxy-2-hydroxyacetophenone], in experiment [1], the “effects on PAF-induced and allergic reactions compared with androsin (in words)” value is recorded as “Essentially, the same effects are achieved”.

In the case of `COc1cc(C(C)=O)ccc1O[C@@H]1O[C@H](CO)[C@@H](O)[C@H](O)[C@H]1O` [Androsin, androsin], in experiment [2] (setting [4]), the inhibition at 0.1 µg/mL was -3.6%, the inhibition at 1 µg/mL is -0.4%, the inhibition at 10 µg/mL was -14.9% and the inhibition at 100 µg/mL is -12.5%. Also, in experiment [2] (C5a stimulus), the inhibition at 0.1 µg/mL was -5.4%, the inhibition at 1 µg/mL was -4.5%, the inhibition at 10 µg/mL was 3.7% and the inhibition at 100 µg/mL is -4.3%. Besides, in experiment [2] (α-IgE stimulus), the inhibition at 0.1 µg/mL was found to be 2.8%, the inhibition at 1 µg/mL was determined as 0.5%, the inhibition at 10 µg/mL stood at 5.5% and the inhibition at 100 µg/mL amounted to 10.9%. The “inhibition of histamine release in vitro (in words)” value in experiment [2] (in vitro experiment of table 1) is given as “not effective”. In experiment [1] (aerosol, 0.5 mg/animal), the “reduction of PAF-induced reactions” value came out at 72%. Further, in experiment [1] (setting [5]), the “reduction of PAF-induced bronchial asthma in vivo” value is listed as 72%. For the same compound, the “reduction of allergic reactions” value in experiment [3] (aerosol, 0.5 mg/animal) was 67%. Besides, the “reduction of allergic bronchial asthma in vivo” value in experiment [3] (setting [5]) is recorded as 67%.

Take `COc1cc(C(C)=O)ccc1O` [apocynin]: the “effects on PAF-induced and allergic reactions compared with androsin (in words)” value in experiment [1] is reported as “Essentially, the same effects are achieved”.
